Measured values published in the supplement of paper PMC11451515.

Test system: NOMO1
Assay: cell viability relative to DMSO control; higher = less cytotoxic
Conditions: 48 h
Outline: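 Library compounds in DMSO were pin-dosed into 1536-well plates (5 μl) holding NOMO1 or SEM (500 cells/well) or P12-Ichikawa (1000 cells/well) leukemia cells, across an 11-point threefold series of 47 μM to 0.79 nM. Each cell line had been adapted for at least four passages in each medium. CellTiter-Glo One luminescence was read after 48 h at 37°C. Viability is the per-plate percentage relative to DMSO wells, with cell-free wells as background.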

[1] = HPLM + 10% dialyzed FBS, 0.000781 µM
[2] = HPLM + 10% dialyzed FBS, 0.00234 µM
[3] = HPLM + 10% dialyzed FBS, 0.00702 µM
[4] = HPLM + 10% dialyzed FBS, 0.0211 µM
[5] = HPLM + 10% dialyzed FBS, 0.0632 µM
[6] = HPLM + 10% dialyzed FBS, 0.19 µM
[7] = HPLM + 10% dialyzed FBS, 0.569 µM
[8] = HPLM + 10% dialyzed FBS, 1.71 µM
[9] = HPLM + 10% dialyzed FBS, 5.12 µM
[10] = HPLM + 10% dialyzed FBS, 15.4 µM
[11] = HPLM + 10% dialyzed FBS, 46.1 µM
[12] = RPMI 5 mM glucose + 10% FBS, 0.000781 µM
[13] = RPMI 5 mM glucose + 10% FBS, 0.00234 µM
[14] = RPMI 5 mM glucose + 10% FBS, 0.00702 µM
[15] = RPMI 5 mM glucose + 10% FBS, 0.0211 µM
[16] = RPMI 5 mM glucose + 10% FBS, 0.0632 µM
[17] = RPMI 5 mM glucose + 10% FBS, 0.19 µM
[18] = RPMI 5 mM glucose + 10% FBS, 0.569 µM
[19] = RPMI 5 mM glucose + 10% FBS, 1.71 µM
[20] = RPMI 5 mM glucose + 10% FBS, 5.12 µM
[21] = RPMI 5 mM glucose + 10% FBS, 15.4 µM
[22] = RPMI 5 mM glucose + 10% FBS, 46.1 µM
[23] = RPMI 5 mM glucose + 10% dialyzed FBS, 0.000781 µM
[24] = RPMI 5 mM glucose + 10% dialyzed FBS, 0.00234 µM
[25] = RPMI 5 mM glucose + 10% dialyzed FBS, 0.00702 µM
[26] = RPMI 5 mM glucose + 10% dialyzed FBS, 0.0211 µM
[27] = RPMI 5 mM glucose + 10% dialyzed FBS, 0.0632 µM
[28] = RPMI 5 mM glucose + 10% dialyzed FBS, 0.19 µM
[29] = RPMI 5 mM glucose + 10% dialyzed FBS, 0.569 µM
[30] = RPMI 5 mM glucose + 10% dialyzed FBS, 1.71 µM
[31] = RPMI 5 mM glucose + 10% dialyzed FBS, 5.12 µM
[32] = RPMI 5 mM glucose + 10% dialyzed FBS, 15.4 µM
[33] = RPMI 5 mM glucose + 10% dialyzed FBS, 46.1 µM

Row | SMILES | cell viability [1] [%] | cell viability [2] [%] | cell viability [3] [%] | cell viability [4] [%] | cell viability [5] [%] | cell viability [6] [%] | cell viability [7] [%] | cell viability [8] [%] | cell viability [9] [%] | cell viability [10] [%] | cell viability [11] [%] | cell viability [12] [%] | cell viability [13] [%] | cell viability [14] [%] | cell viability [15] [%] | cell viability [16] [%] | cell viability [17] [%] | cell viability [18] [%] | cell viability [19] [%] | cell viability [20] [%] | cell viability [21] [%] | cell viability [22] [%] | cell viability [23] [%] | cell viability [24] [%] | cell viability [25] [%] | cell viability [26] [%] | cell viability [27] [%] | cell viability [28] [%] | cell viability [29] [%] | cell viability [30] [%] | cell viability [31] [%] | cell viability [32] [%] | cell viability [33] [%]
1 | O=C1CCC[C@@H]2[C@H]3CCCN4CCC[C@@H](CN12)[C@@H]34 | 59.1 | 68.9 | 78.1 | 87.1 | 87.2 | 94.8 | 38.3 | 93.2 | 26.6 | 25.3 | 13.6 | 79 | 92.2 | 84.6 | 86.8 | 85.2 | 90.9 | 55.3 | 85.2 | 17.2 | 13.9 | 7.48 | 66.1 | 79.6 | 90.2 | 82.9 | 86 | 93.6 | 69.3 | 77.8 | 19.1 | 18.6 | 10.8
2 | O=C(CS(=O)Cc1ccco1)NC/C=C\COc1cc(CN2CCCCC2)ccn1 (stereo not drawn) | 85 | 105 | 101 | 102 | 93.3 | 113 | 93.8 | 98.9 | 89 | 94.1 | 92.9 | 89.7 | 87.5 | 97.2 | 95.7 | 87.1 | 98.2 | 87.8 | 89.3 | 94.8 | 93.3 | 92.8 | 90 | 103 | 95 | 108 | 105 | 103 | 108 | 97.4 | 90.9 | 105 | 99.4
3 | CC[N+](CC)(CC)CCOc1cccc(OCC[N+](CC)(CC)CC)c1OCC[N+](CC)(CC)CC | – | – | – | – | – | – | – | – | – | – | – | 106 | 118 | 108 | 118 | 136 | 110 | 98 | 98.9 | 104 | 112 | 75.7 | 116 | 118 | 115 | 109 | 127 | 114 | 99.4 | 100 | 111 | 101 | 91
4 | c1ccc2c(Cc3c[nH]c4ccccc34)c[nH]c2c1 | 95 | 106 | 108 | 93.6 | 112 | 112 | 95.5 | 89.7 | 87.4 | 80.4 | 54 | 89.8 | 98.3 | 87.8 | 101 | 97.7 | 86.8 | 96.1 | 89.8 | 85.2 | 85.8 | 78.9 | 99 | 92 | 106 | 104 | 93.3 | 97.7 | 93.2 | 94.2 | 88.5 | 84 | 57.1
5 | OC[C@H]1O[C@H](C[C@@H]1O)N2\C=C(F)/C(=O)NC2=O | 115 | 120 | 120 | 70.9 | 51.9 | 46.8 | 52.1 | 50.4 | 35.5 | 27.8 | 17.9 | 121 | 118 | 114 | 118 | 120 | 89.9 | 82.6 | 72.7 | 44.1 | 39.1 | 30.2 | 140 | 119 | 106 | 79.2 | 63.9 | 46.4 | 47 | 34.4 | 24.6 | 27.6 | 20.1
6 | O=[N+]([O-])c1ncc[nH]1 | 90.7 | 84.4 | 90.2 | 78.4 | 91 | 97.4 | 89.7 | 89.4 | 80.8 | 91.7 | 75.8 | 86.3 | 85.5 | 90.9 | 84.2 | 90.9 | 87.3 | 84.1 | 76.9 | 80.3 | 85.7 | 74 | 88.5 | 93.7 | 88.7 | 87.2 | 75.8 | 82.5 | 78.6 | 81 | 83.2 | 76.1 | 87.7
7 | CC(C)(F)C[C@H](N[C@@H](c1ccc(-c2ccc([S+](C)(=O)[O-])cc2)cc1)C(F)(F)F)C(=O)NC1(C#N)CC1 | 91.5 | 113 | 111 | 113 | 108 | 103 | 107 | 116 | 111 | 94.6 | 89.8 | 124 | 136 | 125 | 124 | 119 | 116 | 109 | 115 | 106 | 97.5 | 102 | 105 | 125 | 117 | 121 | 103 | 108 | 112 | 109 | 101 | 101 | 92.3
8 | CN(C)C1=CC(=CC=C1)C\2=C\3C(=O)N(NC3=C/C(=O)N2C)C4=CC=CC=C4Cl | 113 | 109 | 127 | 116 | 120 | 105 | 60.4 | 7.34 | 5.72 | 4.4 | 5.35 | 118 | 105 | 122 | 121 | 116 | 103 | 93 | 19.7 | 5.29 | 5.8 | 5.56 | 118 | 108 | 114 | 116 | 143 | 112 | 83.4 | 28.3 | 10.1 | 7.91 | 8.18
